From US20130296344A1, “CHROMENE DERIVATIVES AND THEIR ANALOGA AS WNT PATHWAY ANTAGONISTS” (Ruprecht-Karls-Universitat Heidelberg, priority 2010, published 2013)
pIC50: −log10 of the molar value. Where two headings read alike, the source gives them in different places.

Experiments:
Wnt pathway (Wnt1/Frzd8) = experiment: Wnt signaling pathway reporter gene assay (6xTCF-luciferase, Wnt1/Frizzled 8/LRP6 stimulated Hek293T cells); format: cell-based, mouse (Wnt1, human (LRP6); conditions: Homo sapiens, HEK-293T, Hek293T, 6xTCF-luciferase reporter, 24 h incubation, 5 nM-100 microM, read-out: Wnt1/Frzd8 IC50 (Wnt pathway inhibitory activity)
Excerpt: To screen for small-molecule modulators of the Wnt signaling pathway, a reporter gene based assay describing the modulation of the TCF4 transcription factor was used. […]

[1] = Cytotoxicity in Hek293T (CellTiterGlo); format: cell-based; conditions: human, Hek293T cells, 24 h after compound addition, 5 nM-100 microM, read-out: Hek293T IC50 (cytotoxic activity)
Description: (§1) For examination of cytotoxicity in these cancer cell lines the commercial available CellTiterGlo® Reagent (Promega, USA) was used according to the manufactor. Compounds were applied to Hek293T (denoted (a)) or HepG2 (denoted (b)), cultured in Dulbecco's Modified Eagles Medium, supplemented with 10% fetal calf serum and 1% penicillin/streptomycin. Cells were grown in T75 flasks at 37° C., 5% CO2 and trypsinized when 60-80% confluent by adding 2 ml of 0.25% Trypsin-EDTA solution. Cells were then re-suspended into culture medium yielding approx. 4000 cells (a) or 4500 cells (b), suspended in 30 microl medium. 48 h after cell seeding, compounds were added to yield the desired final concentrations. 24 h after compound addition cytotoxicity was evaluated. For this purpose the media was removed and CellTiterGlo® was added according to the manufactors manual. In this assay the luciferase emission readout is directly correlated with the cellular amount of ATP, low luciferase emission thus is reflecting cytotoxicity of a compound.

[2] = Cytotoxicity in HepG2 (CellTiterGlo); format: cell-based; conditions: human, HepG2 cells, 24 h after compound addition, 5 nM-100 microM, read-out: HepG2 IC50 (cytotoxic activity)
Description: as §1

[3] = system: human fibroblasts (HS-68); experiment: Cell line specific cytotoxicity, normal cells HS68 (nuclei count); format: cell-based; conditions: at least 72 hr incubation, Hoechst nuclei count, read-out: HS68 IC50 (influence on normal cells)
Description: (§2) For examination of cell line-specific cytotoxicity, compounds were applied to human colorectal cancer cells (HCT116, denoted (1); SW480, denoted (2); Dld-1, denoted (3)) and human fibroblasts (HS-68, denoted (4)), cultured in Mc Coy's ((1)) and Dulbecco's Modified Eagles Medium ((2)-(4)), supplemented with 10% ((1)-(3)) and 20% ((4)) fetal calf serum and 1% penicillin/streptomycin. Cells were grown in T75 flasks at 37° C., 5% CO2 and trypsinized when 60-80% confluent by adding 2 ml of 0.25% Trypsin-EDTA (ethylenediaminetetraacetic acid) solution. Cells were then re-suspended into culture medium yielding approx. 750 cells, suspended in 45 microl medium, were plated into each well of a black 384-well plate for fluorescence imaging experiments. 24-36 hr later 5 microl compound solution (100 microM compound dissolved in ultra pure water containing 1% DMSO (dimethylsulfoxide)), were added to achieve a final concentration of 10 microM and were incubated for at least 72 hr. Compound incubation was terminated by (a) fixation and (b) permeabilisation of cells, followed by (c) fluorescence labeling of cell nuclei for cytometric quantification or by immunocytochemistry for microscopic evaluation of cell morphology. […] Solutions were incubated for 15 (a,b) and 30 min (c) in the dark at room temperature. Cells were washed twice between each step with 30 microl PBS. The assay system was miniaturized and adapted to automated workflow using liquid-handling robotics.
(§3) Cell line-specific cytotoxicity was quantified by counting the number of Hoechst labeled nuclei per well of a 384-well plate using a plate cytometer. Data obtained with the cytometer was analysed using standard data analysis software.
Identified hits were further evaluated by visual inspection of fluorescence micrographs obtained from imaging using a conventional fluorescence microscope.

[4] = system: Dld1 colon carcinoma cells; experiment: Antiproliferative activity against Dld1 colon carcinoma cells (nuclei count); format: cell-based, human; conditions: Homo sapiens, DLD-1; colon carcinoma cells, 5 nM-90 microM, nuclei count; read-out: Dld1 IC50
Description: as §2, §3
(§4) The examination of the antiproliferative activity against human colon carcinoma cells Dld1, HCT116 and SW480 was carried out in analogy to the procedure carried out for HS68. The respective compound applied in increasing concentrations yielding final concentrations per well of 5 nM-90 microM.

[5] = system: HCT116 colon carcinoma cells; experiment: Antiproliferative activity against HCT116 colon carcinoma cells (nuclei count); format: cell-based, human; conditions: Homo sapiens, HCT-116; colon carcinoma cells, 5 nM-90 microM, nuclei count; read-out: HCT116 IC50
Description: as §2, §3, §4

[6] = system: SW480 colon carcinoma cells; experiment: Antiproliferative activity against SW480 colon carcinoma cells (nuclei count); format: cell-based; conditions: Homo sapiens, 5 nM-90 microM
Description: as §2, §3, §4

| Structure (SMILES) | pIC50 (Wnt pathway (Wnt1/Frzd8); 24 h) | IC50 at 24 h [1] [nM] | IC50 at 24 h [2] [nM] | pIC50 [3] | pIC50 [4] | pIC50 [5] | pIC50 [6] | pIC50 (Wnt pathway (Wnt1/Frzd8)) |
| --- | --- | --- | --- | --- | --- | --- | --- | --- |
| C=CCOc1c(Br)cc(C2C(C(=O)OCC)=C(N)Oc3c2ccc2ccccc32)cc1OC (centres unmarked) [(4), 4-(4-Allyloxy-3-bromo-5-methoxy-phenyl)-2-amino-4H-benzo[h]chromene-3-carboxylic acid ethyl ester] | 7.07 | > 90000 | > 90000 | 6.67 | 6.77 | 6.84 | 6.48 | – |
| C=CCOc1c(Br)cc(C2C(C#N)=C(N)Oc3cc4c(cc32)OCO4)cc1OC (centres unmarked) [(41), 8-(4-Allyloxy-3-bromo-5-methoxy-phenyl)-6-amino-8H-[1,3]dioxolo[4,5-g]chromene-7-carbonitrile] | – | > 90000 | > 90000 | 6.19 | 6.33 | 6.26 | 6.21 | 7.35 |
